In patent publication US11530193B2, “Kinase inhibitors” (The University of Manchester, priority 2018, dated 2022):
Structures can show the parent of a compound that is named as a salt.

Biological target: CAMK1D (Homo sapiens (Human), UniProt Q8IU85)
Assay: Tm-Shift assay (thermal melting, SYPRO Orange);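 for SYK Tm-Shift: recombinant His-tagged protein made in Sf9 insect cells by baculovirus, in HEPES NaCl buffer, heated stepwise with fluorescence recorded at every temperature step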
Type: binding
Settings: compound 10 μM, protein 2 μM; ΔTm obs vs protein without ligand; triplicate

Chain of CAMK1D (Q8IU85 1-333): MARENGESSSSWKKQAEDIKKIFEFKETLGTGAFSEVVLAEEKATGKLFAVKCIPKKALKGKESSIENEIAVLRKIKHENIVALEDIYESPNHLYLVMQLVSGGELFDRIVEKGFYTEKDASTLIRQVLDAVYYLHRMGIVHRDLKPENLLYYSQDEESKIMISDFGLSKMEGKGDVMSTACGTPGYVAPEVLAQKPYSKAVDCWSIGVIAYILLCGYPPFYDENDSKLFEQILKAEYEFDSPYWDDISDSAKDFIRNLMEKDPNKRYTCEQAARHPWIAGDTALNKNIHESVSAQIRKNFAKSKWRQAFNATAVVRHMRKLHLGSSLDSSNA

Compared with `CC1(C)COCCN1C(=O)c1cccc(Nc2nc(N3CCC[C@H](N)C3)ncc2C(N)=O)c1` [Example 30, (S)-2-(3-aminopiperidin-1-yl)-4-((3-(3,3-dimethylmorpholine-4-carbonyl)phenyl)amino) pyrimidine-5-carboxamide], `CN(C)C(=O)c1cc(Nc2nc(N3CCC[C@H](N)C3)ncc2C(N)=O)cc(C(C)(C)C)c1` [Example 27, (S)-2-(3-aminopiperidin-1-yl)-4-((3-(tert-butyl)-5-(dimethylcarbamoyl)phenyl)amino) pyrimidine-5-carboxamide] is higher in “CAMK1d Tm-Shift” value: 9.5 °C for the first, 12.5 °C for the second.

Same assay, conditions: read-out: CAMK1d Tm-Shift

Going from `CC(C)(C)c1cc(Nc2nc(N3CCC[C@H](N)C3)ncc2C(N)=O)cc(S(=O)(=O)N2CCCC2)c1` [Example 103, (S)-2-(3-aminopiperidin-1-yl)-4-((3-(tert-butyl)-5-(pyrrolidin-1-ylsulfonyl)phenyl)amino)pyrimidine-5-carboxamide] to `CC(C)(C)c1cc(Nc2nc(N3CCC[C@H](N)C3)ncc2C(N)=O)cc(C(=O)N2CCCC2)c1` [Example 28, (S)-2-(3-aminopiperidin-1-yl)-4-((3-(tert-butyl)-5-(pyrrolidine-1-carbonyl)phenyl)amino)pyrimidine-5-carboxamide], the ΔTm at 10 µM falls from 12.2 °C to 11.8 °C.

First: COC1(c2cc(Nc3nc(N4CCC[C@H](N)C4)ncc3C(N)=O)cc(C(F)(F)F)c2)CC1 [Example 122, (S)-2-(3-aminopiperidin-1-yl)-4-((3-(1-methoxycyclopropyl)-5-(trifluoromethyl)phenyl)amino)pyrimidine-5-carboxamide]
Second: CC(C)(C)c1cc(Nc2nc(N3CCC[C@@H](N)C3)ncc2C(N)=O)cc(C(C)(C)C)c1 [Example 7, (R)-2-(3-aminopiperidin-1-yl)-4-((3,5-di-tert-butylphenyl)amino)pyrimidine-5-carboxamide hydrochloride]
The ΔTm at 10 µM of the first is lower: -0.8 °C for the first, 10.6 °C for the second.

Going from `CC(C)(C)c1cccc(Nc2nc(N3CCCC(N)C3)ncc2C(N)=O)c1` (stereo not drawn) [Example 1, 2-(3-aminopiperidin-1-yl)-4-((3-(tert-butyl)phenyl)amino)pyrimidine-5-carboxamide] to `CC(C)(C#N)c1cccc(Nc2nc(N3CCC[C@H](N)C3)ncc2C(N)=O)c1` [Example 4, (S)-2-(3-aminopiperidin-1-yl)-4-((3-(2-cyanopropan-2-yl)phenyl)amino)pyrimidine-5-carboxamide], the ΔTm at 10 µM falls from 10.6 °C to 9 °C.

Compared with `CC(C)(C)c1cc(Nc2nc(N3CCC[C@H](N)C3)ncc2C(N)=O)cc(C(C)(C)C)c1` [Example 3, (S)-2-(3-aminopiperidin-1-yl)-4-((3,5-di-tert-butylphenyl)amino)pyrimidine-5-carboxamide], `CC(C)(C)c1cc(Nc2nc(N3CCCC(N)C3)ncc2C(N)=O)cc(C(C)(C)C)c1` (stereo not drawn) [Example 2, 2-(3-aminopiperidin-1-yl)-4-((3,5-di-tert-butylphenyl)amino)pyrimidine-5-carboxamide] is higher in ΔTm at 10 µM: 13.4 °C for the first, 14 °C for the second.

Biological target: SYK (Homo sapiens (Human), UniProt P43405)
Assay: Tm-Shift assay (thermal melting, SYPRO Orange);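 for SYK Tm-Shift: recombinant His-tagged protein made in Sf9 insect cells by baculovirus, in HEPES NaCl buffer, heated stepwise with fluorescence recorded at every temperature step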
Type: binding
Settings: not given

Compared with `CC1(C)COCCN1C(=O)c1cccc(Nc2nc(N3CCC[C@H](N)C3)ncc2C(N)=O)c1` [Example 30, (S)-2-(3-aminopiperidin-1-yl)-4-((3-(3,3-dimethylmorpholine-4-carbonyl)phenyl)amino) pyrimidine-5-carboxamide], `C[C@@H]1COC[C@H](C)N1C(=O)c1cccc(Nc2nc(N3CCC[C@H](N)C3)ncc2C(N)=O)c1.Cl` [Example 33, 2-((S)-3-aminopiperidin-1-yl)-4-((3-((3S,5R)-3,5-dimethylmorpholine-4-carbonyl)phenyl)amino)pyrimidine-5-carboxamide hydrochloride] is lower in “SYK Tm-Shift” value: 2.0 °C for the first, 0.5 °C for the second.

Compared with `CN(C)C(=O)c1cc(Nc2nc(N3CCC[C@H](N)C3)ncc2C(N)=O)cc(C(C)(C)C)c1` [Example 27, (S)-2-(3-aminopiperidin-1-yl)-4-((3-(tert-butyl)-5-(dimethylcarbamoyl)phenyl)amino) pyrimidine-5-carboxamide], `CC(C)(C)c1cc(Nc2nc(N3C[C@H](N)C[C@H](N)C3)ncc2C(N)=O)cc(C(C)(C)C)c1.Cl.Cl` [Example 11, 4-((3,5-di-tert-butylphenyl)amino)-2-((3S,5R)-3,5-diaminopiperidin-1-yl)pyrimidine-5-carboxamide dihydrochloride] is lower in “SYK Tm-Shift” value: 0.4 °C for the first, −0.5 °C for the second.

First: CN1CCN(C(=O)c2cccc(Nc3nc(N4CCC[C@H](N)C4)ncc3C(N)=O)c2)CC1=O.Cl [Example 38, (S)-2-(3-aminopiperidin-1-yl)-4-((3-(4-methyl-3-oxopiperazine-1-carbonyl)phenyl)amino)pyrimidine-5-carboxamide hydrochloride]
Second: CC(C)(O)C1CN(C(=O)c2cccc(Nc3nc(N4CCC[C@H](N)C4)ncc3C(N)=O)c2)C1.Cl [Example 37, (S)-2-(3-aminopiperidin-1-yl)-4-((3-(3-(2-hydroxypropan-2-yl)azetidine-1-carbonyl)phenyl)amino)pyrimidine-5-carboxamide hydrochloride]
The “SYK Tm-Shift” value of the first is lower: 3.4 °C for the first, 5.0 °C for the second.

In the case of `COC[C@H]1CCCN1C(=O)c1cccc(Nc2nc(N3CCC[C@H](N)C3)ncc2C(N)=O)c1.Cl` [Example 36, 2-((S)-3-aminopiperidin-1-yl)-4-((3-((R)-2-(methoxymethyl)pyrrolidine-1-carbonyl)phenyl)amino)pyrimidine-5-carboxamide hydrochloride], the “SYK Tm-Shift” value is reported as 1.4 °C.

Same assay, conditions: compound 10 μM, protein 2 μM; ΔTm obs vs protein without ligand; triplicate

Going from `CC(C)(C)c1cc(Nc2nc(N3CCC[C@H](N)C3)ncc2C(N)=O)cc(S(=O)(=O)N2CCCC2)c1` [Example 103, (S)-2-(3-aminopiperidin-1-yl)-4-((3-(tert-butyl)-5-(pyrrolidin-1-ylsulfonyl)phenyl)amino)pyrimidine-5-carboxamide] to `CC(C)(C)c1cc(Nc2nc(N3CCC[C@H](N)C3)ncc2C(N)=O)cc(C(=O)N2CCCC2)c1` [Example 28, (S)-2-(3-aminopiperidin-1-yl)-4-((3-(tert-butyl)-5-(pyrrolidine-1-carbonyl)phenyl)amino)pyrimidine-5-carboxamide], the “SYK Tm-Shift” value falls from 0.7 °C to 0.5 °C.

Compared with `CC(C)(C#N)c1cc(Nc2nc(N3CCC[C@H](N)C3)ncc2C(N)=O)cc(C(=O)N2CCOCC2)c1` [Example 48, (S)-2-(3-aminopiperidin-1-yl)-4-((3-(2-cyanopropane-2-yl)-5-(morpholine-4-carbonyl)phenyl)amino)pyrimidine-5-carboxamide], `CC(C)(C#N)c1cc(Nc2nc(N3CCC[C@H](N)C3)ncc2C(N)=O)cc(C(=O)N2CCCC2)c1` [Example 47, (S)-2-(3-aminopiperidin-1-yl)-4-((3-(2-cyanopropan-2-yl)-5-(pyrrolidine-1-carbonyl)phenyl)amino)pyrimidine-5-carboxamide] is higher in “SYK Tm-Shift” value: 0.5 °C for the first, 0.7 °C for the second.

Going from `C[C@@H]1CN(C(=O)c2cccc(Nc3nc(N4CCC[C@H](N)C4)ncc3C(N)=O)c2)C[C@H](C)O1` [Example 39, 2-((S)-3-aminopiperidin-1-yl)-4-((3-((2R,6S)-2,6-dimethylmorpholine-4-carbonyl)phenyl)amino)pyrimidine-5-carboxamide] to `NC(=O)c1cnc(N2CCC[C@H](N)C2)nc1Nc1cccc(C(=O)N2CCOCC2)c1` [Example 24, (S)-2-(3-aminopiperidin-1-yl)-4-((3-(morpholine-4-carbonyl)phenyl)amino)pyrimidine-5-carboxamide], the “SYK Tm-Shift” value falls from 3.1 °C to 1.4 °C.

Going from `Cc1ccccc1-c1cccc(Nc2nc(N3CCC[C@H](N)C3)ncc2C(N)=O)c1` [Example 10, (S)-2-(3-aminopiperidin-1-yl)-4-((2′-methyl-[1,1′-biphenyl]-3-yl)amino)pyrimidine-5-carboxamide] to `CN(C)C(=O)c1cccc(Nc2nc(N3CCC[C@H](N)C3)ncc2C(N)=O)c1` [Example 23, (S)-2-(3-aminopiperidin-1-yl)-4-((3-(dimethylcarbamoyl)phenyl)amino)pyrimidine-5-carboxamide], the “SYK Tm-Shift” value falls from 6.5 °C to 1.6 °C.

Compared with `CC(C)(O)c1cc(Nc2nc(N3CCC[C@H](N)C3)ncc2C(N)=O)cc(C(F)(F)F)c1` [Example 89, (S)-2-(3-aminopiperidin-1-yl)-4-((3-(2-hydroxypropan-2-yl)-5-(trifluoromethyl)phenyl)amino)pyrimidine-5-carboxamide], `CC(C)(O)c1cc(Nc2nc(N3CCC[C@H](N)C3)ncc2C(N)=O)cc(C(C)(C)O)c1` [Example 90, (S)-2-(3-aminopiperidin-1-yl)-4-((3,5-bis(2-hydroxypropan-2-yl)phenyl)amino) pyrimidi-ne-5-carboxamide] is lower in “SYK Tm-Shift” value: 3.4 °C for the first, 0.9 °C for the second.

Compared with `NC(=O)c1cnc(N2CCC[C@H](N)C2)nc1Nc1cc(C(=O)N2CCOCC2)cc(C(F)(F)F)c1` [Example 43, (S)-2-(3-aminopiperidin-1-yl)-4-((3-(morpholine-4-carbonyl)-5-(trifluoromethyl)phenyl)amino)pyrimidine-5-carboxamide], `NC(=O)c1cnc(N2CCC[C@H](N)C2)nc1Nc1cc(C(=O)N2CCOCC2)cc(-c2ccccc2)c1` [Example 21, (S)-2-(3-aminopiperidin-1-yl)-4-((5-(morpholine-4-carbonyl)-[1,1′-biphenyl]-3-yl)amino)pyrimidine-5-carboxamide] is lower in “SYK Tm-Shift” value: 1.2 °C for the first, 0.3 °C for the second.

Compared with `COc1ccc2c(c1)CN(C(=O)c1cccc(Nc3nc(N4CCC[C@H](N)C4)ncc3C(N)=O)c1)C2` [Example 35, (S)-2-(3-aminopiperidin-1-yl)-4-((3-(5-methoxyisoindoline-2-carbonyl)phenyl)amino)pyrimidine-5-carboxamide], `NC(=O)c1cnc(N2CCC[C@H](N)C2)nc1Nc1cccc(C(=O)N2CCCCC2)c1` [Example 26, (S)-2-(3-aminopiperidin-1-yl)-4-((3-(piperidine-1-carbonyl)phenyl)amino)pyrimidine-5-carboxamide] is lower in “SYK Tm-Shift” value: 4.3 °C for the first, 1.8 °C for the second.

Compared with `NC(=O)c1cnc(N2CCC[C@H](N)C2)nc1Nc1cc(C2CC2)cc(C2CC2)c1` [Example 53, (S)-2-(3-aminopiperidin-1-yl)-4-((3,5-dicyclopropylphenyl)amino)pyrimidine-5-carboxamide], `CC(C)(C)c1cc(Nc2nc(N3CCC[C@H](N)C3)ncc2C(N)=O)ccn1` [Example 8, (S)-2-(3-aminopiperidin-1-yl)-4-((2-(tert-butyl)pyridin-4-yl)amino)pyrimidine-5-carboxamide] is lower in “SYK Tm-Shift” value: 8.2 °C for the first, 3.2 °C for the second.

First: CN(C)C(=O)c1cc(Nc2nc(N3CCC[C@H](N)C3)ncc2C(N)=O)cc(C(C)(C)C#N)c1 [Example 46, (S)-2-(3-aminopiperidin-1-yl)-4-((3-(2-cyanopropan-2-yl)-5-(dimethylcarbamoyl)phenyl)amino)pyrimidine-5-carboxamide]
Second: CC1(C)C(=O)Nc2ccc(Nc3nc(N4CCC[C@H](N)C4)ncc3C(N)=O)cc21 [Example 65, (S)-2-(3-aminopiperidin-1-yl)-4-((3,3-dimethyl-2-oxoindolin-5-yl)amino)pyrimidine-5-carboxamide]
The “SYK Tm-Shift” value of the first is higher: 0.5 °C for the first, 0.3 °C for the second.

In the case of `Cc1cccc(C)c1-c1cc(Nc2nc(N3CCC[C@H](N)C3)ncc2C(N)=O)cc(C(=O)N2CCOCC2)c1` [Example 20, (S)-2-(3-aminopiperidin-1-yl)-4-((2′,6′-dimethyl-5-(morpholine-4-carbonyl)-[1,1′-biphenyl]-3-yl)amino)pyrimidine-5-carboxamide], the “SYK Tm-Shift” value is reported as 0.3 °C.
